Laboratory results: US20170173052A1, “METHODS OF TREATING OVARIAN CANCER” (Cipla Limited, priority 2015, published 2017)
Where two headings read alike, the source gives them in different places.

Assays:
[1] = tested on: eight selected human ovarian cancer cell lines; assay: In vitro cytotoxicity 2D assay (CellTiter-Blue cell viability), panel mean; format: cell-based; conditions: for IC50: 96 h treatment, mean over eight ovarian cancer cell lines, read-out: geometric mean absolute IC50 value
From the text: (§1) In the present study the human ovarian cancer cell lines OVXF 899, OVXF 1023, A2780, SK-OV-3, OVCAR-3, IGR-OV1, OVCAR-5 and NCI/ADR-RES were used. OVXF 899 and OVXF 1023 were established at Oncotest, Germany from the corresponding human patient derived xenograft. A2780, IGR-OV1, NCl/ADR-RES, OVCAR-3 and OVCAR-5 were kindly provided by the NCI (National Cancer Institute, Bethesda, Md., USA). SK-OV-3 was purchased from ATCC (Rockville, Md., USA). Authenticity of cell lines was confirmed at the DSMZ by STR (short tandem repeat) analysis, a PCR based DNA-fingerprinting methodology. Cell lines were routinely passaged once or twice weekly and maintained in culture for up to 20 passages. All cells were grown at 37° C. in a humidified atmosphere with 5% CO2 in RPMI 1640 medium (25 mM HEPES, with L-glutamine, #FG1385, Biochrom, Berlin, Germany) supplemented with 10% (v/v) fetal calf serum (Sigma, Taufkirchen, Germany) and 0.1 mg/mL gentamicin (Life Technologies, Karlsruhe, Germany).
(§2) The CellTiter-Blue® Cell Viability Assay (#G8081, Promega) was used according to manufacturer's instructions. Briefly, cells were harvested from exponential phase cultures, […] on the cell line's growth rate. After a 24 h recovery period to allow the cells to resume exponential growth, test compounds were added.
(§3) Following an incubation period of up to four hours, fluorescence (FU) was measured by using the Enspire Multimode Plate Reader (excitation λ=531 nm, emission λ=615 nm). For calculations, the mean values of duplicate/six fold (untreated control) data were used. Sigmoidal concentration-response curves were fitted to the data points (T/C values) obtained for each cell line using 4 parameter non-linear curve fit (Oncotest Warehouse Software).
The in vitro anti-tumor activity of methacycline in eight selected human ovarian cancer cell lines were evaluated. […] Anti-tumor activity was assessed by using the CellTiter-Blue® Cell Viability Assay. Potency is expressed as absolute IC50 and relative IC50 values, calculated by non-linear regression analysis. […]

OVCAR-3 = assay: In vitro cytotoxicity 2D assay (CellTiter-Blue cell viability); format: cell-based, human; conditions: 96 h treatment, read-out: absolute IC50
From the text: as §1, §2, §3
(§4) The in vitro anti-tumor activity of methacycline in eight selected human ovarian cancer cell lines were evaluated. The test compounds was applied at 10 concentrations in half-log increments up to 300 μM. As a reference compound paclitaxel was tested in parallel. Cells were treated for 96 h with the test compounds. Anti-tumor activity was assessed by using the CellTiter-Blue® Cell Viability Assay. Potency is expressed as absolute IC50 and relative IC50 values, calculated by non-linear regression analysis. Results are depicted in FIGS. 1-4.

A2780 [2] = assay: as above; format: cell-based, human; conditions: 96 h treatment, read-out: absolute IC50
From the text: as §1, §2, §3, §4

OVCAR-5 [3] = assay: as above; format: cell-based, human; conditions: 96 h treatment, read-out: absolute IC50
From the text: as §1, §2, §3, §4

IGR-OV1 [4] = assay: as above; format: cell-based, human; conditions: 96 h treatment, read-out: absolute IC50
From the text: as §1, §2, §3, §4

SK-OV-3 [5] = assay: as above; format: cell-based, human; conditions: 96 h treatment, read-out: absolute IC50
From the text: as §1, §2, §3, §4

NCI/ADR-RES = assay: as above; format: cell-based, human; conditions: 96 h treatment, read-out: absolute IC50
From the text: as §1, §2, §3, §4

[6] = tested on: ovarian cancer cell lines A2780, OVCAR3, OVCAR-5, and SK-OV-3; assay: In vitro cytotoxicity 3D clonogenic assay, responding lines; format: cell-based, human; conditions: range over A2780, OVCAR3, OVCAR-5, SK-OV-3, read-out: IC50 values, inhibition of colony formation
Description: (§5) In the present study methacycline and the reference compound paclitaxel were investigated for anticancer activity ex vivo in eight human tumor cell lines of ovarian cancer. Tests were carried out using a 3D clonogenic assay in 96-well format with image based read-out. The aim of the study was to investigate antitumor potency and tumor type selectivity of the compound. Cell lines were routinely passaged one or twice weekly. All cells were grown at 37° C. in a humidified atmosphere with 5% CO2 in RPMI 1640 medium (Biochrom) supplemented with 10% (v/v) fetal calf serum and 0.1 mg/mL gentamicin. The percentage of viable cells was determined in a Neubauer-hemocytometer using trypan blue exclusion.
The clonogenic assay was carried out in a 96 well plate format using ultra low attachment plates. For each test, cells were prepared as described above and assay plates were prepared as follows: each test well contained a layer of semi-solid medium with tumor cells (50 μL), and a second layer of medium supernatant with or without test compound (100 μL). […] Cultures were incubated at 37° C. and 7.5% CO2 in a humidified atmosphere for 8 to 13 days and monitored closely for colony growth using an inverted microscope. […]

OVXF A2780 = assay: In vitro combination study, 2D monolayer CellTiter-Blue, 5x5 matrix; format: cell-based, human; conditions: single agent, four days, read-out: IC50, tumor cell viability, single agent
Description: (§6) The objective of this study was to assess anti-tumor efficacy of methacycline in combination with paclitaxel in a 5×5 matrix combination format against various ovarian cancer cell lines. The compounds were tested in ovarian cell lines, namely OVXF A2780 and OVXF SK-OV-3, obtained from National Cancer Institute (Bethesda, Md., USA). OVXF SKOV-3 cells were obtained from American Type Culture Collection (Rockville, Md., USA). Authenticity of cell lines was confirmed at the DSMZ by STR analysis. Cell lines were routinely passaged once or twice weekly and maintained in culture for up to 20 passages. Cells were grown at 37° C. in a humidified atmosphere with 5% CO2 in RPMI 1640 medium (25 mM HEPES, with L-glutamine, Biochrom) supplemented with 10% (v/v) fetal calf serum and 0.1 mg/mL gentamicin. The percentage of viable cells was determined in a Neubauer-hemocytometer using trypan blue exclusion.
(§7) The CellTiter-Blue® Cell Viability Assay (#G8081, Promega) was used according to manufacturer's instructions. Briefly, cells were harvested from exponential phase cultures, counted and plated in 96-well flat-bottom microtiter plates at a cell density of 4,000-8,000 cells/well depending on the cell line's growth rate. After a 24 h recovery period to allow the cells to resume exponential growth, 10 μL of culture medium (twelve control wells/plate) or of culture medium with test compound were added, and treatment continued for four days. After four days treatment of cells, 20 μl/well CellTiter-Blue® reagent was added. Following an incubation period of up to four hours, fluorescence (FU) was measured by using the Enspire Multimode Plate Reader (excitation λ=531 nm, emission λ=615 nm). […]
(§8) In the present study, methacycline was tested alone and in combination with paclitaxel in order to investigate the ability to inhibit tumor cell growth of ovarian cancer cell lines in a 5×5 matrix combination format. Efficacy of methacycline combined with paclitaxel was assessed by measuring tumor cell viability using a 2D monolayer assay in cell lines OVXF A2780, OVXF IGR-OV1, OVXF SK-OV-3.

OVXF IGR-OV1 = assay: as above; format: cell-based, human; conditions: single agent, four days, read-out: IC50, tumor cell viability, single agent
Description: as §6, §7, §8

A2780 [7] = assay: In vitro cytotoxicity 3D clonogenic assay; format: cell-based, human; conditions: based on relative IC50 (individual IC50 <1/2 mean IC50)
Description: as §5
(§9) The clonogenic assay was carried out in a 96 well plate format using ultra low attachment plates. For each test, cells were prepared as described above and assay plates were prepared as follows: each test well contained a layer of semi-solid medium with tumor cells (50 μL), and a second layer of medium supernatant with or without test compound (100 μL). The cell layer consisted of 2·10^3 to 3·10^3 tumor cells per well, which were seeded in 50 μL/well cell culture medium (IMDM, supplemented with 20% (v/v) fetal calf serum, 0.01% (w/v) gentamicin, and 0.4% (w/v) agar. After 24 hours the test compounds were added after serial dilution in cell culture medium, and left on the cells for the duration of the experiment (continuous exposure, 100 μl drug overlay). Test concentrations ranged from 0.01 μM to 316.2 μM (methacycline), and 0.000095 μM to 3 (paclitaxel). Every plate included six untreated control wells and drug-treated groups in duplicate at 9 concentrations. Cultures were incubated at 37° C. and 7.5% CO2 in a humidified atmosphere for 8 to 13 days and monitored closely for colony growth using an inverted microscope. Within this period, ex vivo tumor growth led to the formation of colonies with a diameter of >50 μm. At the time of maximum colony formation, counts were performed with an automatic image analysis system (Bioreader 5000-Wa Biosys GmbH). 48 hours prior to evaluation, vital colonies were stained with a sterile aqueous solution of 2-(4-iodophenyl)-3-(4-nitrophenyl)-5-phenyltetrazolium chloride (1 mg/ml, 100 μl/well)

OVCAR3 = assay: In vitro cytotoxicity 3D clonogenic assay; format: cell-based, human; conditions: based on relative IC50 (individual IC50 <1/2 mean IC50)
Description: as §5, §9

IGR-OV1 [8] = assay: In vitro cytotoxicity 3D clonogenic assay; format: cell-based, human; conditions: based on relative IC50
Description: as §5, §9

OVXF 899L = assay: In vitro cytotoxicity 3D clonogenic assay; format: cell-based, human
Description: as §5, §9

OVXF 1023L = assay: In vitro cytotoxicity 3D clonogenic assay; format: cell-based, human
Description: as §5, §9

NCI-ADR-RES = assay: In vitro cytotoxicity 3D clonogenic assay; format: cell-based, human
Description: as §5, §9

SK-OV-3 [9] = assay: In vitro cytotoxicity 3D clonogenic assay; format: cell-based, human; conditions: based on relative IC50 (individual IC50 <1/2 mean IC50)
Description: as §5, §9

[10] = tested on: eight human tumor cell lines of ovarian cancer; assay: In vitro cytotoxicity 3D clonogenic assay, panel; format: cell-based; conditions: for IC50: Homo sapiens, continuous exposure 8 to 13 days
Description: as §5
as §9, with “48 hours prior to evaluation, vital colonies were stained with a sterile aqueous solution of 2-(4-iodophenyl)-3-(4-nitrophenyl)-5-phenyltetrazolium chloride (1 mg/ml, 100 μl/well)” left out

OVXF SK-OV-3 = assay: In vitro combination study, 2D monolayer CellTiter-Blue, 5x5 matrix; format: cell-based; conditions: Homo sapiens, 96 h, single agent, four days, read-out: IC50, tumor cell viability, single agent
Description: as §6
The CellTiter-Blue® Cell Viability Assay (#G8081, Promega) was used according to manufacturer's instructions. Briefly, cells were harvested from exponential phase cultures, counted and plated in 96-well flat-bottom microtiter plates at a cell density of 4,000-8,000 cells/well depending on the cell line's growth rate. […] Following an incubation period of up to four hours, fluorescence (FU) was measured by using the Enspire Multimode Plate Reader (excitation λ=531 nm, emission λ=615 nm). […]

OVCAR-5 [11] = assay: In vitro cytotoxicity 3D clonogenic assay; format: cell-based, human; conditions: based on relative IC50
Description: as §5, §9

methacycline
IC50 [1]: 27.2 µM | difference between the most sensitive and most resistant cell line ([1]; IGR-OV1 vs NCI/ADR-RES IC50): 13 fold | IC50 (OVCAR-3): 17.5 µM | IC50 (A2780 [2]): 22.7 µM | IC50 (OVCAR-5 [3]): 14.5 µM | IC50 (IGR-OV1 [4]): 7.92 µM | IC50 (SK-OV-3 [5]): 18.6 µM | IC50 (NCI/ADR-RES): 104 µM | IC50 [6]: 54.1 to 71.1 µM | IC50 (OVXF A2780): 34.6 µM | IC50 (OVXF IGR-OV1): 43.3 µM | activity against colony formation (A2780 [7]): above average activity | activity against colony formation (OVCAR3): above average activity | activity against colony formation (IGR-OV1 [8]): No activity | activity against colony formation (OVXF 899L): No activity | activity against colony formation (OVXF 1023L): No activity | activity against colony formation (NCI-ADR-RES): No activity | activity against colony formation (SK-OV-3 [9]): above average activity

CC(=O)O[C@H]1C(=O)[C@@]2(C)[C@H]([C@H](OC(=O)c3ccccc3)[C@]3(O)C[C@H](OC(=O)[C@H](O)[C@@H](NC(=O)c4ccccc4)c4ccccc4)C(C)=C1C3(C)C)[C@]1(OC(C)=O)CO[C@@H]1C[C@@H]2O [paclitaxel]
IC50 ([1]; Homo sapiens): 0.045 µM | IC50 ([10]; read-out: mean absolute IC50 value, colony formation): 0.077 µM | IC50 ([10]; read-out: mean relative IC50 value, colony formation): 0.012 µM | bottom plateaus of the concentration-effect curves of responding tumor models ([10]; responding tumor models): 0% to 60 | IC50 (OVXF SK-OV-3): 0.009 µM | IC50 (OVXF IGR-OV1; Homo sapiens, IGROV-1, 96 h): 0.003 µM | activity against colony formation (OVCAR3): above average activity | activity against colony formation (OVCAR-5 [11]): above average activity | activity against colony formation (IGR-OV1 [8]): above average activity
